# Measured values: PubChem BioAssay (NCI)
#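 Assay format: 96-well plates, 48-hour exposure. The concentration for 50% growth inhibition is given as GI50. TGI denotes the concentration required for complete inhibition of growth.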
# What was measured:
# Test in all cases: inhibition of tumour cell growth, NCI panel, 48 h
# [1] = test system: NCI-H23 lung
# [2] = test system: UO-31 renal
# [3] = test system: PC-3 prostate
# [4] = test system: SK-OV-3 ovarian
# [5] = test system: DU-145 prostate
# [6] = test system: U251 CNS
# [7] = test system: CAKI-1 renal
# [8] = test system: HCT-15 colon
# [9] = test system: UACC-62 melanoma
# [10] = test system: NCI/ADR-RES ovarian
# [11] = test system: HOP-62 NSCLC
# [12] = test system: NCI-H522 lung
# [13] = test system: SNB-75 CNS
# [14] = test system: K-562 leukemia
# [15] = test system: EKVX NSCLC
# [16] = test system: SR leukemia
# [17] = test system: CCRF-CEM leukemia
# [18] = test system: BT-549 breast
# [19] = test system: SK-MEL-5 melanoma
# [20] = test system: SK-MEL-2 melanoma
# [21] = test system: 786-0 renal
# [22] = test system: IGROV1 ovarian
# [23] = test system: COLO 205 colon
# [24] = test system: RXF 393 renal
# [25] = test system: OVCAR-4 ovarian
# [26] = test system: HCT-116 colon
# [27] = test system: HT29 colon
# [28] = test system: OVCAR-3 ovarian
# [29] = test system: SF-268 CNS
# [30] = test system: SN12C renal
# [31] = test system: KM12 colon
# [32] = test system: MDA-MB-435
# [33] = test system: HS 578T breast
# [34] = test system: UACC-257 melanoma
# [35] = test system: LOX IMVI melanoma
# [36] = test system: MDA-MB-231 breast
# [37] = test system: ACHN renal
# [38] = test system: OVCAR-8 ovarian
# [39] = test system: OVCAR-5 ovarian
# [40] = test system: SNB-19 CNS
# [41] = test system: A549 NSCLC
# [42] = test system: SW-620 colon
# [43] = test system: A498 renal
# [44] = test system: SF-295 CNS
# [45] = test system: M14 melanoma
# [46] = test system: MALME-3M melanoma
# [47] = test system: SF-539 CNS
# [48] = test system: TK-10 renal
# [49] = test system: SK-MEL-28 melanoma
# [50] = test system: T-47D breast
# [51] = test system: HL-60(TB) leukemia
# [52] = test system: HCC-2998 colon
# [53] = test system: NCI-H226 lung
# [54] = test system: NCI-H460 lung
# [55] = test system: MOLT-4 leukemia
# [56] = test system: RPMI-8226 leukemia
# [57] = test system: MCF7 breast
structure (smiles),measurement,setting,value
COC(=O)c1cc2cc(-c3ccc(OC)cc3)cnc2[nH]1,GI50,[1],3.33 µM
same,TGI,[1],24.1 µM
same,GI50,[2],4.06 µM
same,TGI,[2],24.1 µM
same,GI50,[3],1.26 µM
same,TGI,[3],15 µM
same,GI50,[4],2.35 µM
same,TGI,[4],12.9 µM
same,GI50,[5],2.6 µM
same,TGI,[5],16 µM
same,GI50,[6],0.857 µM
same,TGI,[6],16.6 µM
same,GI50,[7],2.28 µM
same,TGI,[7],> 38.9 µM
same,GI50,[8],0.6 µM
same,TGI,[8],> 100 µM
same,GI50,[9],1.88 µM
same,TGI,[9],> 70.1 µM
same,GI50,[10],0.36 µM
same,TGI,[10],3.41 µM
same,GI50,[11],2.95 µM
same,TGI,[11],21.2 µM
same,GI50,[12],0.767 µM
same,TGI,[12],5.48 µM
same,GI50,[13],1.68 µM
same,TGI,[13],21.3 µM
same,GI50,[14],0.427 µM
same,TGI,[14],> 100 µM
same,GI50,[15],5.87 µM
same,TGI,[15],> 100 µM
same,GI50,[16],0.286 µM
same,TGI,[16],21.1 µM
same,GI50,[17],2.61 µM
same,TGI,[17],> 100 µM
same,GI50,[18],1.08 µM
same,TGI,[18],> 32.2 µM
same,GI50,[19],0.922 µM
same,TGI,[19],15.8 µM
same,GI50,[20],2.76 µM
same,TGI,[20],> 67.3 µM
same,GI50,[21],1.64 µM
same,TGI,[21],14.6 µM
same,GI50,[22],0.439 µM
same,TGI,[22],2.77 µM
same,GI50,[23],0.774 µM
same,GI50,[24],1.85 µM
same,TGI,[24],5.96 µM
same,GI50,[25],3.47 µM
same,TGI,[25],> 100 µM
same,GI50,[26],0.39 µM
same,TGI,[26],11.7 µM
same,GI50,[27],0.399 µM
same,TGI,[27],23.4 µM
same,GI50,[28],0.359 µM
same,TGI,[28],1.19 µM
same,GI50,[29],2.05 µM
same,TGI,[29],27.7 µM
same,GI50,[30],5.73 µM
same,TGI,[30],> 51.6 µM
same,GI50,[31],0.418 µM
same,TGI,[31],12.9 µM
same,GI50,[32],0.227 µM
same,TGI,[32],0.666 µM
same,TGI,[33],> 30.3 µM
same,GI50,[34],7.35 µM
same,TGI,[34],> 100 µM
same,GI50,[35],2.19 µM
same,TGI,[35],> 100 µM
same,GI50,[36],4.11 µM
same,TGI,[36],31.2 µM
same,GI50,[37],7.77 µM
same,TGI,[37],57.1 µM
same,GI50,[38],1.52 µM
same,TGI,[38],16.4 µM
same,GI50,[39],11.3 µM
same,TGI,[39],73.7 µM
same,GI50,[40],2.27 µM
same,TGI,[40],> 64.7 µM
same,GI50,[41],1.13 µM
same,TGI,[41],40.3 µM
same,GI50,[42],0.389 µM
same,TGI,[42],> 100 µM
same,GI50,[43],1.63 µM
same,TGI,[43],14.3 µM
same,GI50,[44],1.32 µM
same,TGI,[44],11.4 µM
same,GI50,[45],0.511 µM
same,TGI,[45],7.52 µM
same,GI50,[46],2.87 µM
same,TGI,[46],37.9 µM
same,GI50,[47],1.11 µM
same,TGI,[47],3.79 µM
same,GI50,[48],4.26 µM
same,TGI,[48],21.8 µM
same,GI50,[49],6.27 µM
same,TGI,[49],> 100 µM
same,GI50,[50],0.726 µM
same,TGI,[50],> 100 µM
same,GI50,[51],0.767 µM
same,TGI,[51],> 28.1 µM
same,GI50,[52],2.34 µM
same,TGI,[52],18.9 µM
same,GI50,[53],9.15 µM
same,TGI,[53],57.3 µM
same,GI50,[54],0.565 µM
same,TGI,[54],11.6 µM
same,GI50,[55],1.06 µM
same,TGI,[55],> 100 µM
same,GI50,[56],1.29 µM
same,TGI,[56],> 28 µM
same,GI50,[57],0.452 µM
same,TGI,[57],> 100 µM
